Assay results taken from ChEMBL document CHEMBL4715869, “N-(Pyrimidin-2-yl)-1,2,3,4-tetrahydroisoquinolin-6-amine Derivatives as Selective Janus Kinase 2 Inhibitors for the Treatment of Myeloproliferative Neoplasms” (J Med Chem, 2020).
Calls of active or inactive are those of the source. The calls are words filed in the database; no cut-off is given here.

How the values were obtained:
[1] = target: Non-receptor tyrosine-protein kinase TYK2 (Homo sapiens, UniProt P29597); experiment: Inhibition of recombinant human TYK2 (875 to end residues) using GGMEDIYFEFMGGKKK as substrate incubated for 40 mins in presence of [gamma33P]ATP by scintillation counting based radiometry assay
Chain of Non-receptor tyrosine-protein kinase TYK2 (P29597 whole entry): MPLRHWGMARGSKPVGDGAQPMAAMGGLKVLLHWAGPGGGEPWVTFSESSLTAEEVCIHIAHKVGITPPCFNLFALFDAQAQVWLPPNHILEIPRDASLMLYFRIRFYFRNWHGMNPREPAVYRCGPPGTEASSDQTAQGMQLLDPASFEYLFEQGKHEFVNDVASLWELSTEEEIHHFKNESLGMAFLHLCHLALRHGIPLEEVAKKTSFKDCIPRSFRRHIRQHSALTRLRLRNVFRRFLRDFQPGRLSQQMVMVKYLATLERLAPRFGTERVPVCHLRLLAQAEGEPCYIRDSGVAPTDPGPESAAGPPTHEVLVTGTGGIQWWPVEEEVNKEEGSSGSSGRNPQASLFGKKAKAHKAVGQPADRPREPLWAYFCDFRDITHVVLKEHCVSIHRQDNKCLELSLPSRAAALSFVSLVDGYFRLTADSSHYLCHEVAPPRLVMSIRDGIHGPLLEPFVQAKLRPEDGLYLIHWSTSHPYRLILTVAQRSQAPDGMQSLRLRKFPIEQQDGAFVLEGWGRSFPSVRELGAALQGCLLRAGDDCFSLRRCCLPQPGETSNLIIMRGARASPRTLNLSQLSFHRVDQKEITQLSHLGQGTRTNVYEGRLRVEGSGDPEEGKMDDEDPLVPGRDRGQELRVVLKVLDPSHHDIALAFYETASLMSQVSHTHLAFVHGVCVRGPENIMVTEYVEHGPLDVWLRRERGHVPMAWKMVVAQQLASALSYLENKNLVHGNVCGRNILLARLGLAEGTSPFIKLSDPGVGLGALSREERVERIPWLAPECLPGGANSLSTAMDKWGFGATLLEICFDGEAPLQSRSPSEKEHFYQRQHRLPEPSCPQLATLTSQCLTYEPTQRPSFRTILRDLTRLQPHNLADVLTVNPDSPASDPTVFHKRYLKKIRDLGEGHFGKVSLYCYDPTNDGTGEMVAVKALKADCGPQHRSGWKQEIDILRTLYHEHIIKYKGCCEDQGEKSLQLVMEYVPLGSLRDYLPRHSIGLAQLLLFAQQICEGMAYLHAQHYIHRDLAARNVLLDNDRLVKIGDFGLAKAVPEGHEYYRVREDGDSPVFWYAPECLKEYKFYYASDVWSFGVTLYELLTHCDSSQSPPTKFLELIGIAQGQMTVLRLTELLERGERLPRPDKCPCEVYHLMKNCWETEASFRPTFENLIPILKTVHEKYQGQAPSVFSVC

SET-2 [2] = experiment: Antitumor activity against human SET2 cells xenografted in NOD/SCID mouse assessed as tumor growth inhibition at 30 mg/kg, po qd administered for 16 days and measured every 2 days relative to control; assay type: functional; details: SET-2, po, 384 h, time 16 day, read-out: TGI
BaF3 [3] = experiment: Antitumor activity against mouse BAF3 cells harboring JAK2 V617F mutant implanted in Balb/c mouse assessed as decrease in liver weight at 30 mg/kg, po qd administered starting from day 4 to 20 and measured on day 25 relative to control; assay type: functional; parameters: scale not given: the % may be the effect or the level left; details: time 21 day
[4] = Cytotoxicity against rat H9c2(2-1) cells assessed as reduction in cell viability incubated for 72 hrs by MTT assay; assay type: cell-based; details: H9c2, 72 h
SET-2 [5] = experiment: Induction of apoptosis in human SET-2 cells assessed as early apoptotic cells at 0.4 uM incubated for 24 hrs by Annexin V/PI staining based flow cytometric analysis (reference value: 1.47 %); assay type: functional
[6] = Selectivity index, ratio of IC50 for inhibition of recombinant human FLT3 D835Y mutant (564 to end residues) to IC50 for inhibition of recombinant human JAK2 (808 to end residues)
SET-2 [7] = experiment: Induction of apoptosis in human SET-2 cells assessed as live cells at 0.4 uM incubated for 24 hrs by Annexin V/PI staining based flow cytometric analysis (reference value: 96.23 %); assay type: functional
SET-2 [8] = experiment: Induction of apoptosis in human SET-2 cells assessed as live cells at 0.2 uM incubated for 24 hrs by Annexin V/PI staining based flow cytometric analysis (reference value: 96.23 %); assay type: functional
[9] = Selectivity index, ratio of IC50 for inhibition of human JAK1 (866 to end residues) to IC50 for inhibition of recombinant human JAK2 (808 to end residues)
[10] = Apparent clearance in Sprague-Dawley rat at 5 mg/kg, iv administered […] measured upto 24 hrs by LC/MS/MS analysis; assay type: ADME, organism-based; details: in vivo, read-out: CL(app) (converted)
SET-2 [11] = experiment: Induction of apoptosis in human SET-2 cells assessed as necrotic cells at 0.8 uM incubated for 24 hrs by Annexin V/PI staining based flow cytometric analysis (reference value: 0.78%); assay type: functional
SET-2 [12] = experiment: Induction of apoptosis in human SET-2 cells assessed as live cells at 0.05 uM incubated for 24 hrs by Annexin V/PI staining based flow cytometric analysis (reference value: 96.23 %); assay type: functional
[13] = Selectivity index, ratio of IC50 for inhibition of recombinant human TYK2 (875 to end residues) to IC50 for inhibition of recombinant human JAK2 (808 to end residues)
[14] = Elimination half life in male Sprague-Dawley rat at 5 mg/kg, po administered via gavage measured upto 24 hrs by LC/MS/MS analysis; assay type: ADME, organism-based; details: in vivo, read-out: beta t1/2 (converted)
BaF3 [15] = experiment: Antitumor activity against mouse BAF3 cells harboring JAK2 V617F mutant implanted in Balb/c mouse assessed as decrease in spleen weight at 60 mg/kg, po qd administered starting from day 4 to 20 and measured on day 25 relative to control; assay type: functional; parameters: scale not given: the % may be the effect or the level left; details: time 21 day
[16] = target: Receptor-type tyrosine-protein kinase FLT3 (Homo sapiens) (UniProt P36888); experiment: Inhibition of FLT3 in human SET2 cells assessed as decrease in FLT3 phosphorylation at 1 to 1000 nM after 2 hrs by Western blot analysis; assay type: cell-based; details: dose 1-1000 nM
Chain of Receptor-type tyrosine-protein kinase FLT3 (Homo sapiens) (P36888 whole entry): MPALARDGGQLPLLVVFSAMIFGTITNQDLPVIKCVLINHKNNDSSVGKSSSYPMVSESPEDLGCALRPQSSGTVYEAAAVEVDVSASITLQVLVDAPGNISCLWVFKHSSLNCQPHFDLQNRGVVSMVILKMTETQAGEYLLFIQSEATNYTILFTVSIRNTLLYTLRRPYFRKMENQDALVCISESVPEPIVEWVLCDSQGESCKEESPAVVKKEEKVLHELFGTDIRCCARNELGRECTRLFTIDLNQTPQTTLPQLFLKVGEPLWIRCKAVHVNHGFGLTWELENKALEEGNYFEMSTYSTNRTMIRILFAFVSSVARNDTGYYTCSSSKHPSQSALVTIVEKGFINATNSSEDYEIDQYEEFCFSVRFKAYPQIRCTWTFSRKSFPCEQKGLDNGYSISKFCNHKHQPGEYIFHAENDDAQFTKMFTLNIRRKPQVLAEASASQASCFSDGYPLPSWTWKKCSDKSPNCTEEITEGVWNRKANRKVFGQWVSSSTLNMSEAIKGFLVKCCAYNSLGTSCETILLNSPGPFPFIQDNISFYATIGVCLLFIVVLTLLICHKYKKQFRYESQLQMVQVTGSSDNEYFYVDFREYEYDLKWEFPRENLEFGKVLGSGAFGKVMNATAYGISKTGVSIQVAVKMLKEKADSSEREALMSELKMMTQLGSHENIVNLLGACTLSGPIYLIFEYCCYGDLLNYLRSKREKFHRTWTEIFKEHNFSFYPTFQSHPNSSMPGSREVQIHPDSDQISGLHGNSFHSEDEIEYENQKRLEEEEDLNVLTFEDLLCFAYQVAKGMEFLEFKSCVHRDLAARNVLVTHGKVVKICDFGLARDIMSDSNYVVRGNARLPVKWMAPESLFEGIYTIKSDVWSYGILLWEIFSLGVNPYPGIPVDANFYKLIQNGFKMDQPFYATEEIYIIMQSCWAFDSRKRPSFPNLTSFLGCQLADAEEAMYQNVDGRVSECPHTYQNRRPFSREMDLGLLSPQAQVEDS

[17] = target: Signal transducer and activator of transcription 3 (Mus musculus) (UniProt P42227); experiment: Inhibition of STAT3 phosphorylation in mouse BAF3 cells at 1000 nM after 2 hrs by Western blot analysis; assay type: cell-based
Chain of Signal transducer and activator of transcription 3 (Mus musculus) (P42227 whole entry): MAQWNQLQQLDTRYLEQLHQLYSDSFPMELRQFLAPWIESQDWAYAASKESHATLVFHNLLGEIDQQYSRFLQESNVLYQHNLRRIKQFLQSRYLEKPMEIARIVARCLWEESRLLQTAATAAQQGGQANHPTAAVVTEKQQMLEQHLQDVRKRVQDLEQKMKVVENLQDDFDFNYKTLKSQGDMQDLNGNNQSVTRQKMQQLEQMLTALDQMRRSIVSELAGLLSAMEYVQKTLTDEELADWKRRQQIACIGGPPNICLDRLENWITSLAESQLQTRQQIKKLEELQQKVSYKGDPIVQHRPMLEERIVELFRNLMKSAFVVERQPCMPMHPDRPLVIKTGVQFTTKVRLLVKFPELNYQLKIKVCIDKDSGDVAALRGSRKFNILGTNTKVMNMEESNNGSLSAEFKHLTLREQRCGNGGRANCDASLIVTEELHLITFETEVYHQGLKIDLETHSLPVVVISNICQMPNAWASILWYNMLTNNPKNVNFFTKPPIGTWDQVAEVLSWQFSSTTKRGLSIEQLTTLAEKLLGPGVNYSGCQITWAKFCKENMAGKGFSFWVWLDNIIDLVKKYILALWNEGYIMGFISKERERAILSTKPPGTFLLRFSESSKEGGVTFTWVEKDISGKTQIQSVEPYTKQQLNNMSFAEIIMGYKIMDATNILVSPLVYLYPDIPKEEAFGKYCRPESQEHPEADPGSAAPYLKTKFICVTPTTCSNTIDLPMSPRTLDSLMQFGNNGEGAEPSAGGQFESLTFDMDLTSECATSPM

[18] = Tmax in male Sprague-Dawley rat at 5 mg/kg, po administered via gavage measured upto 24 hrs by LC/MS/MS analysis; assay type: ADME, organism-based; details: in vivo
SET-2 [19] = experiment: Induction of apoptosis in human SET-2 cells assessed as late apoptotic cells at 0.05 uM incubated for 24 hrs by Annexin V/PI staining based flow cytometric analysis (reference value: 1.52%); assay type: functional
SET-2 [20] = experiment: Induction of apoptosis in human SET-2 cells assessed as necrotic cells at 0.05 uM incubated for 24 hrs by Annexin V/PI staining based flow cytometric analysis (reference value: 0.78%); assay type: functional
SET-2 [21] = experiment: Antitumor activity against human SET2 cells xenografted in NOD/SCID mouse assessed as tumor growth inhibition at 60 mg/kg, po qd administered for 16 days and measured every 2 days relative to control; assay type: functional; details: SET-2, po, 384 h, time 16 day, read-out: TGI
Vero = experiment: Cytotoxicity against African green monkey Vero cells assessed as reduction in cell viability incubated for 72 hrs by MTT assay; assay type: cell-based; details: Chlorocebus sabaeus
[22] = Cmax in male Sprague-Dawley rat at 5 mg/kg, po administered via gavage measured upto 24 hrs by LC/MS/MS analysis; assay type: ADME, organism-based; parameters: route oral, dose 5 mg/kg, time <=24; details: in vivo
SET-2 [23] = experiment: Induction of apoptosis in human SET-2 cells assessed as late apoptotic cells at 1.6 uM incubated for 24 hrs by Annexin V/PI staining based flow cytometric analysis (reference value: 1.52%); assay type: functional
[24] = Toxicity in Balb/c mouse assessed as effect on hematocrit at 30 to 60 mg/kg, po administered daily for 14 days; assay type: organism-based; details: in vivo, 336 h, dose 30-60 mg/kg, time 14 day
[25] = Elimination half life in male Sprague-Dawley rat at 5 mg/kg, iv administered […] measured upto 24 hrs by LC/MS/MS analysis; assay type: ADME, organism-based; details: in vivo, read-out: beta t1/2 (converted)
[26] = target: Tyrosine-protein kinase JAK1 (Homo sapiens, UniProt P23458); experiment: Inhibition of human JAK1 (866 to end residues) using GEEPLYWSFPAKKK as substrate after 40 mins by [gamma-33ATP] radiometric assay
Chain of Tyrosine-protein kinase JAK1 (P23458 whole entry): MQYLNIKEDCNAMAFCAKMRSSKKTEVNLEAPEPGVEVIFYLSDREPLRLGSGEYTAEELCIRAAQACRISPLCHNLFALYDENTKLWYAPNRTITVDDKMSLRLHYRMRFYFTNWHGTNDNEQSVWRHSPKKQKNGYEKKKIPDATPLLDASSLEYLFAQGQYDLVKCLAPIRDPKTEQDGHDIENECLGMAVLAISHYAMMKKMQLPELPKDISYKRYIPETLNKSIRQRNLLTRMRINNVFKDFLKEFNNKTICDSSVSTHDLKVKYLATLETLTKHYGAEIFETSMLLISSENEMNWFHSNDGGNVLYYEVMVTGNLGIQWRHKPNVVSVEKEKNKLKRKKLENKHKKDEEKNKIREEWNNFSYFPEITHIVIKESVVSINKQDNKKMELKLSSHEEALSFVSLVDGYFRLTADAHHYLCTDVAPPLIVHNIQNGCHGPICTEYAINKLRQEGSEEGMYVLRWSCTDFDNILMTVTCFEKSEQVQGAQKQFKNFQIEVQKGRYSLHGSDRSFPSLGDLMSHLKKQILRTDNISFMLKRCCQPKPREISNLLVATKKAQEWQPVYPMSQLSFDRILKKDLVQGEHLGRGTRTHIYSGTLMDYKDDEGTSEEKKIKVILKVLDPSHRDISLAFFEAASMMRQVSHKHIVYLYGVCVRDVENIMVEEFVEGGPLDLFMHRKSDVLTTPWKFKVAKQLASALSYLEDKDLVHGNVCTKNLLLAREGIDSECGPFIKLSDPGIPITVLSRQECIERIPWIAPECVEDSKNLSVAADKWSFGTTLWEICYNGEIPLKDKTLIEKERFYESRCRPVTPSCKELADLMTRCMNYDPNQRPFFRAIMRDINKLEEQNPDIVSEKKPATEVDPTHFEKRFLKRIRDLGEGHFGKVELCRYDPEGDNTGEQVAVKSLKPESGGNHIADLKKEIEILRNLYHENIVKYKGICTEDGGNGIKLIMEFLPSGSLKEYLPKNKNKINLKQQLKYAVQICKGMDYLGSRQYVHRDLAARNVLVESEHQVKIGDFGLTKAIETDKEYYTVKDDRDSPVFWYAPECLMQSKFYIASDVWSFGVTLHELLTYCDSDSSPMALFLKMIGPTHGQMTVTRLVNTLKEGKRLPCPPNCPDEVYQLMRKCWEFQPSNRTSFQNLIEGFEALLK

Homo sapiens = species on record: Homo sapiens; experiment: Selectivity index, ratio of IC50 for inhibition of FLT3 ITD mutant in human MOLM13 cells to IC50 for inhibition of JAK2 V617F mutant in human SET-2 cells; assay type: cell-based

Cc1cnc(Nc2ccc3c(c2)CCN(C(=O)/C=C/CN(C)C)C3)nc1-c1cnn(C(C)C)c1
IC50 [1]: 0.075 µM
inhibition in vivo at 30 mg/kg (SET-2 [2]): 67.8%
Activity (BaF3 [3]): 36.2%
IC50 [4]: 6.93 µM
Activity (SET-2 [5]): 5.92%
Ratio IC50 [6]: 20.7
Activity (SET-2 [7]): 84.92%
Activity (SET-2 [8]): 90.35%
Ratio IC50 [9]: 14
clearance [10]: 83.5 mL/min/kg
Activity (SET-2 [11]): 1.37%
Activity (SET-2 [12]): 94.6%
Ratio IC50 [13]: 25
half-life [14]: 1.8 h
Activity (BaF3 [15]): 77.1%
inhibition [16]: inactive
inhibition [17]: inactive
Tmax [18]: 0.9 h
Activity (SET-2 [19]): 2.34%
Activity (SET-2 [20]): 0.35%
inhibition in vivo at 60 mg/kg (SET-2 [21]): 82.3%
IC50 (Vero): 6.75 µM
Cmax [22]: 51.1 ng/mL
Activity (SET-2 [23]): 45.54%
Activity [24]: Toxic
half-life [25]: 4 h
IC50 [26]: 0.042 µM
Ratio IC50 (Homo sapiens): 75.2
